# Values joined by “and” are separate entries in the source; they are usually repeats but may differ in a detail not shown here. Equal entries are not always repeated.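 Tested at 5 concentrations; 48 h exposure; 96-well plates; endpoints linearly interpolated, else capped at highest concentration. Here, GI50 denotes the concentration required for 50% inhibition of growth.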 Active and inactive are the calls of the source. Cut-off read from the data, not from the text of the source: active = GI50 up to about 1.1 µM and inactive = higher.
# Tests used:
# Assay in all cases: NCI tumour cell line growth inhibition, 48 h
# [1] = test system: SK-MEL-5
# [2] = test system: HL-60
# [3] = test system: SNB-75
# [4] = test system: SK-MEL-2
# [5] = test system: MDA-MB-231
# [6] = test system: DLD-1
# [7] = test system: SR
# [8] = test system: RXF 393
# [9] = test system: KM12
# [10] = test system: HOP-92
# [11] = test system: RPMI-8226
# [12] = test system: SW-620
# [13] = test system: XF498
# [14] = test system: NCI-H226
# [15] = test system: TK-10
# [16] = test system: M14
# [17] = test system: UACC-257
# [18] = test system: HCT-15
# [19] = test system: KM-20L2
# [20] = test system: MCF7
# [21] = test system: SN12C
# [22] = test system: HCT-116
# [23] = test system: MDA-MB-435
# [24] = test system: EKVX
# [25] = test system: Hs-578T
# [26] = test system: RXF 631
# [27] = test system: UACC-62
# [28] = test system: SF-295
# [29] = test system: DMS-114
# [30] = test system: HOP-62
# [31] = test system: MOLT-4
# [32] = test system: HCC 2998
# [33] = test system: NCI-H23
# [34] = test system: A549
# [35] = test system: OVCAR-5
# [36] = test system: U-251
# [37] = test system: HT-29
# [38] = test system: SF-539
# [39] = test system: PC-3
# [40] = test system: ACHN
# [41] = test system: COLO 205
# [42] = test system: BT-549
# [43] = test system: CAKI-1
# [44] = test system: DU-145
# [45] = test system: T47D
# [46] = test system: MDA-N
# [47] = test system: NCI-H460
# [48] = test system: SK-MEL-28
# [49] = test system: OVCAR-3
# [50] = test system: LXFL 529
# [51] = test system: SF-268
# [52] = test system: K562
# [53] = test system: NCI/ADR-RES
# [54] = test system: NCI-H522
# [55] = test system: Malme-3M
# [56] = test system: IGROV-1
# [57] = test system: OVCAR-4
# [58] = test system: SK-OV-3
# [59] = test system: CCRF-CEM
# [60] = test system: DMS-273
# [61] = test system: 786-0
# [62] = test system: LOX IMVI
# [63] = test system: OVCAR-8
# [64] = test system: M19-MEL
# [65] = test system: SNB-19
# [66] = test system: SNB-78
# [67] = test system: HOP-18
compound,measurement,setting,value
COc1cc2c(cc1O)CCN[C@@]21CS[C@H]2c3c(OC(C)=O)c(C)c4c(c3C(COC1=O)N1C2C2c3c(cc(C)c(OC)c3O)CC([C@@H]1O)N2C)OCO4 (stereo partly drawn),GI50,[1],< 0.1 nM (active)
same,GI50,[2],< 0.1 nM (active)
same,GI50,[3],1.31 nM (active)
same,GI50,[4],< 0.1 nM (active)
same,GI50,[5],< 0.1 nM (active)
same,GI50,[6],< 0.001 nM (active)
same,GI50,[7],< 0.001 nM (active)
same,GI50,[8],< 0.1 nM (active)
same,GI50,[9],< 0.1 nM (active)
same,GI50,[10],< 0.1 nM (active)
same,GI50,[11],1.91 nM (active)
same,GI50,[12],< 0.1 nM (active)
same,GI50,[13],< 0.001 nM (active)
same,GI50,[14],< 0.1 nM (active)
same,GI50,[15],< 0.1 nM (active)
same,GI50,[16],< 0.1 nM (active)
same,GI50,[17],< 0.1 nM (active)
same,GI50,[18],0.1 nM
same,GI50,[19],< 0.001 nM (active)
same,GI50,[20],< 0.1 nM (active)
same,GI50,[21],< 0.1 nM (active)
same,GI50,[22],0.1 nM (active)
same,GI50,[23],< 0.1 nM (active)
same,GI50,[24],< 0.1 nM (active)
same,GI50,[25],< 0.1 nM (active)
same,GI50,[26],< 0.001 nM (active)
same,GI50,[27],< 0.1 nM (active)
same,GI50,[28],< 0.1 nM (active)
same,GI50,[29],< 0.001 nM (active)
same,GI50,[30],< 0.1 nM (active)
same,GI50,[31],< 0.1 nM (active)
same,GI50,[32],0.1 nM (active)
same,GI50,[33],< 0.1 nM (active)
same,GI50,[34],< 0.1 nM (active)
same,GI50,[35],0.1 nM (active)
same,GI50,[36],0.1 nM (active)
same,GI50,[37],1.28 nM (active)
same,GI50,[38],< 0.1 nM (active)
same,GI50,[39],< 0.1 nM (active)
same,GI50,[40],< 0.1 nM (active)
same,GI50,[41],< 0.1 nM (active)
same,GI50,[42],1.81 nM (active)
same,GI50,[43],< 0.1 nM (active)
same,GI50,[44],< 0.1 nM (active)
same,GI50,[45],2.96 nM (active)
same,GI50,[46],< 0.1 nM (active)
same,GI50,[47],< 0.1 nM (active)
same,GI50,[48],< 0.1 nM (active)
same,GI50,[49],< 0.1 nM (active)
same,GI50,[50],< 0.001 nM (active)
same,GI50,[51],< 0.1 nM (active)
same,GI50,[52],0.324 nM (active)
same,GI50,[53],0.1 nM (active)
same,GI50,[54],< 0.1 nM (active)
same,GI50,[55],< 0.1 nM (active)
same,GI50,[56],< 0.1 nM (active)
same,GI50,[57],< 0.1 nM (active)
same,GI50,[58],0.1 nM (active)
same,GI50,[59],< 0.1 nM (active)
same,GI50,[60],< 0.001 nM (active)
same,GI50,[61],0.1 nM (active)
same,GI50,[62],< 0.1 nM (active)
same,GI50,[63],< 0.1 nM (active)
same,GI50,[64],< 0.001 nM (active)
same,GI50,[65],< 0.1 nM (active)
CN(C)CC1CCCC(CN(C)C)C1=O (stereo not drawn),GI50,[1],8.38 µM (inactive) and 16 µM (inactive)
same,GI50,[3],16.4 µM (inactive) and 13.9 µM (inactive)
same,GI50,[4],8.73 µM (inactive) and 17.2 µM (inactive)
same,GI50,[66],3500 nM (inactive)
same,GI50,[6],1120 nM (active)
same,GI50,[8],1.73 µM (inactive) and 1.26 µM (inactive)
same,GI50,[10],1.91 µM (inactive) and 968 nM (active)
same,GI50,[67],1830 nM (inactive)
same,GI50,[12],196 nM (active) and 271 nM (active)
same,GI50,[13],2090 nM (inactive)
same,GI50,[17],2.34 µM (inactive) and 2.11 µM (inactive)
same,GI50,[19],5020 nM (inactive)
same,GI50,[24],5.74 µM (inactive) and 6.61 µM (inactive)
same,GI50,[29],1480 nM (inactive)
same,GI50,[31],241 nM (active) and 450 nM (active)
same,GI50,[32],13.9 µM (inactive) and 19.3 µM (inactive)
same,GI50,[34],24.9 µM (inactive) and 27.2 µM (inactive)
same,GI50,[35],18.2 µM (inactive) and 18.3 µM (inactive)
same,GI50,[36],10.7 µM (inactive) and 17.9 µM (inactive)
same,GI50,[40],1.33 µM (inactive) and 1.87 µM (inactive)
same,GI50,[41],1.67 µM (inactive) and 3.33 µM (inactive)
same,GI50,[44],> 10 µM (inactive) and 15.6 µM (inactive)
same,GI50,[45],1.69 µM (inactive) and 1.24 µM (inactive)
same,GI50,[46],11 µM (inactive) and 12.1 µM (inactive)
same,GI50,[47],19.8 µM (inactive) and 17.5 µM (inactive)
same,GI50,[49],2.58 µM (inactive) and 1.95 µM (inactive)
same,GI50,[50],386 nM (active)
same,GI50,[56],19.3 µM (inactive) and 18.1 µM (inactive)
same,GI50,[60],10900 nM (inactive)
same,GI50,[61],2.32 µM (inactive) and 1.77 µM (inactive)
same,GI50,[63],2.71 µM (inactive) and 2.98 µM (inactive)
same,GI50,[64],3650 nM (inactive)
same,GI50,[65],> 45.6 µM (inactive) and 47 µM (inactive)
